# According to patent US11173151B2, “Substituted triazole derivatives and uses thereof” (BAYER AKTIENGESELLSCHAFT, priority 2017, dated 2021):
# Read-outs that look alike come from different tables or passages of the source.
# How the values were obtained:
# [1] = target: T1, human V2 receptor (Homo sapiens, UniProt P30518); test: Cellular in vitro assay for determining vasopressin receptor activity, V2 receptor cell line (CHO, CRE-luciferase); type: cell-based; details: CHO cell line transfected with human V2 receptor, [Arg8]-vasopressin at EC50 concentration, read-out: IC50 hV2
# T1 construct: expressed in transfected cells; host or cells: CHO K1 (ATCC) expressing firefly luciferase under a CRE-responsive promoter
# [2] = target: T2, human V1a receptor (Homo sapiens, UniProt P37288); test: Cellular in vitro assay for determining vasopressin receptor activity, V1a receptor cell line (CHO, aequorin luminescence); type: cell-based; details: for IC50: CHO cell line transfected with human V1a receptor, [Arg]-vasopressin at EC50 concentration, read-out: IC50 hV1a; for ratio IC50 hV2/hV1a: selectivity ratio IC50 hV2 / IC50 hV1a
# T2 construct: expressed in transfected cells; host or cells: CHO K1 (ATCC), also stably transfected with a modified aequorin
# How it was run: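 Luminescence from reconstituted aequorin, reporting intracellular calcium release, was measured immediately after adding [Arg]-vasopressin at EC50 concentration to CHO K1 cells pretreated 10 minutes with graded compound concentrations. Inhibition gave IC50 values.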
# T1 sequence (P30518 whole entry): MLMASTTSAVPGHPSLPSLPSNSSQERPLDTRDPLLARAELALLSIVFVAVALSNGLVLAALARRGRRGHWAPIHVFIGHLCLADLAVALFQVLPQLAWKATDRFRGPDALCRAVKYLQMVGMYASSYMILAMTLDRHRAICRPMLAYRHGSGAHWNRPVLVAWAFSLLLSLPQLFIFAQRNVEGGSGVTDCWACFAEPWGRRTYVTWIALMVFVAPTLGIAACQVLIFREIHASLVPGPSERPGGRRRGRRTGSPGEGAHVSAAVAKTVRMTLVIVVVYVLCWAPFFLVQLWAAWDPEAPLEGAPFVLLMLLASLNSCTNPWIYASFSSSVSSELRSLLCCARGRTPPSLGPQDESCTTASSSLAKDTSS
# T2 sequence (P37288 whole entry): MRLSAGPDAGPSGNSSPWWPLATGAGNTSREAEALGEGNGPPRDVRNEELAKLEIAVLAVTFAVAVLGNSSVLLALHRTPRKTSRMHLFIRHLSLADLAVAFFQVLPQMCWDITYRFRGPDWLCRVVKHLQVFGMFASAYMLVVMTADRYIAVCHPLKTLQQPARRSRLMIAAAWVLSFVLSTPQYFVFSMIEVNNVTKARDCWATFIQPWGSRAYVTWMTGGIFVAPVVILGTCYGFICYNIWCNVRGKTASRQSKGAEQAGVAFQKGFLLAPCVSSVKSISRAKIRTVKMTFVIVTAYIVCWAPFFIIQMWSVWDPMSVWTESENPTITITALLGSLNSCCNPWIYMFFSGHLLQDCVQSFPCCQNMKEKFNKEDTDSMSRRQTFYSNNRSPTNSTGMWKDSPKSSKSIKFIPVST
SMILES,IC50 [1],IC50 [2],ratio IC50 hV2/hV1a [2],IC50 ([1]; 3 hours)
"NC(=O)C1CCCN1C(=O)c1ncccc1-n1cnc(Cn2nc(-c3ccc(Cl)cc3)n(C[C@@H](O)C(F)(F)F)c2=O)n1 (mixture of isomers) [Example 467, 1-({3-[3-({3-(4-chlorophenyl)-5-oxo-4-[(2R)-3,3,3-trifluoro-2-hydroxypropyl]-4,5-dihydro-1H-1,2,4-triazol-1-yl}methyl)-1H-1,2,4-triazol-1-yl]pyridin-2-yl}carbonyl)-prolinamide]",32000 nM,620 nM,51.6,–
"O=C(c1ncccc1-n1cnc(Cn2nc(-c3ccc(Cl)cc3)n(C[C@@H](O)C(F)(F)F)c2=O)n1)N1CCC(C(F)(F)F)C1 (mixture of isomers) [Example 480, 5-(4-Chlorophenyl)-4-[(2R)-3,3,3-trifluoro-2-hydroxypropyl]-2-{[1-(2-{[3-(trifluoromethyl)pyrrolidin-1-yl]carbonyl}pyridin-3-yl)-1H-1,2,4-triazol-3-yl]methyl}-2,4-dihydro-3H-1,2,4-triazol-3-one]",32000 nM,460 nM,69.6,–
"NC(CNC(=O)c1ncccc1-n1cnc(Cn2nc(-c3ccc(Cl)cc3)n(C[C@@H](O)C(F)(F)F)c2=O)n1)C(F)(F)F (mixture of isomers) [Example 484, N-[2-Amino-3,3,3-trifluoropropyl]-3-[3-({3-(4-chlorophenyl)-5-oxo-4-[(2R)-3,3,3-trifluoro-2-hydroxypropyl]-4,5-dihydro-1H-1,2,4-triazol-1-yl}methyl)-1H-1,2,4-triazol-1-yl]pyridine-2-carboxamide]",9400 nM,210 nM,44.8,–
"O=C(NCC(O)C(F)(F)F)c1ncccc1-n1cnc(Cn2nc(-c3ccc(Cl)cc3)n(C[C@@H](O)C(F)(F)F)c2=O)n1 (mixture of isomers) [Example 485, 3-[3-({3-(4-Chlorophenyl)-5-oxo-4-[(2R)-3,3,3-trifluoro-2-hydroxypropyl]-4,5-dihydro-1H-1,2,4-triazol-1-yl}methyl)-1H-1,2,4-triazol-1-yl]-N-[3,3,3-trifluoro-2-hydroxypropyl]pyridine-2-carboxamide]",5000 nM,230 nM,21.7,–
"COCC1CCCN1C(=O)c1ccncc1-n1cnc(Cn2nc(-c3ccc(Cl)cc3)n(C[C@H](O)C(F)(F)F)c2=O)n1 (mixture of isomers) [Example 493, 5-(4-Chlorophenyl)-2-{[1-(4-{[2-(methoxymethyl)pyrrolidin-1-yl]carbonyl}pyridin-3-yl)-1H-1,2,4-triazol-3-yl]methyl}-4-[(2S)-3,3,3-trifluoro-2-hydroxypropyl]-2,4-dihydro-3H-1,2,4-triazol-3-one]",7300 nM,13.5 nM,540.7,–
O=C(NC1CC1F)c1cccnc1-n1cnc(Cn2nc(-c3ccc(Cl)cc3)n(C[C@H](O)C(F)(F)F)c2=O)n1 (mixture of isomers) [Example 503],215 nM,5.55 nM,38.7,–
"O=C(Nc1cccnc1-n1cnc(Cn2nc(-c3ccc(Cl)cc3)n(C[C@H](O)C(F)(F)F)c2=O)n1)[C@@H]1C[C@@H]1C(F)(F)F (racemic) [Example 45, N-{2-[3-({3-(4-Chlorophenyl)-5-oxo-4-[(2S)-3,3,3-trifluoro-2-hydroxypropyl]-4,5-dihydro-1H-1,2,4-triazol-1-yl}methyl)-1H-1,2,4-triazol-1-yl]pyridin-3-yl}-2-(trifluoromethyl)cyclopropanecarboxamide]",–,33 nM,21.0,693 nM
"O=C(Nc1ncccc1-n1cnc(Cn2nc(-c3ccc(Cl)cc3)n(C[C@H](O)C(F)(F)F)c2=O)n1)[C@@H]1C[C@@H]1F (racemic) [Example 76, N-{3-[3-({3-(4-Chlorophenyl)-5-oxo-4-[(2S)-3,3,3-trifluoro-2-hydroxypropyl]-4,5-dihydro-1H-1,2,4-triazol-1-yl}methyl)-1H-1,2,4-triazol-1-yl]pyridin-2-yl}-2-fluorocyclopropanecarboxamide]",–,6.45 nM,362.4,2340 nM

# More lines, now with the values ahead:
IC50 [1],IC50 [2],ratio IC50 hV2/hV1a [2],IC50 ([1]; 3 hours),SMILES
55000 nM,5700 nM,9.6,–,"COCC1CCCN1C(=O)c1ccncc1-n1nc(Cn2nc(-c3ccc(Cl)cc3)n(C[C@H](O)C(F)(F)F)c2=O)nc1C(=O)N1CCNC(=O)C1 (mixture of isomers) [Example 516, 4-{[3-({3-(4-Chlorophenyl)-5-oxo-4-[(2S)-3,3,3-trifluoro-2-hydroxypropyl]-4,5-dihydro-1H-1,2,4-triazol-1-yl}methyl)-1-(4-{[2-(methoxymethyl)pyrrolidin-1-yl]carbonyl}pyridin-3-yl)-1H-1,2,4-triazol-5-yl]carbonyl}piperazin-2-one]"
15000 nM,3000 nM,5.0,–,"COCC1CCCN1C(=O)c1ccncc1-n1nc(Cn2nc(-c3ccc(Cl)cc3)n(C[C@H](O)C(F)(F)F)c2=O)nc1C(=O)N1CCS(=O)(=O)CC1 (mixture of isomers) [Example 522, 5-(4-Chlorophenyl)-2-({5-[(1,1-dioxidothiomorpholin-4-yl)carbonyl]-1-(4-{[2-(methoxymethyl)pyrrolidin-1-yl]carbonyl}pyridin-3-yl)-1H-1,2,4-triazol-3-yl}methyl)-4-[(2S)-3,3,3-trifluoro-2-hydroxypropyl]-2,4-dihydro-3H-1,2,4-triazol-3-one]"
20000 nM,8650 nM,2.3,–,"COCC1CCCN1C(=O)c1cccnc1-n1nc(Cn2nc(-c3ccc(Cl)cc3)n(C[C@H](O)C(F)(F)F)c2=O)nc1C(=O)N1CCNC(=O)C1 (mixture of isomers) [Example 526, 4-{[3-({3-(4-Chlorophenyl)-5-oxo-4-[(2S)-3,3,3-trifluoro-2-hydroxypropyl]-4,5-dihydro-1H-1,2,4-triazol-1-yl}methyl)-1-(3-{[2-(methoxymethyl)pyrrolidin-1-yl]carbonyl}pyridin-2-yl)-1H-1,2,4-triazol-5-yl]carbonyl}piperazin-2-one]"
4850 nM,275 nM,17.6,–,"COCC1CCCN1C(=O)c1cccnc1-n1nc(Cn2nc(-c3ccc(Cl)cc3)n(C[C@H](O)C(F)(F)F)c2=O)nc1C(=O)N1CCS(=O)(=O)CC1 (mixture of isomers) [Example 532, 5-(4-Chlorophenyl)-2-({5-[(1,1-dioxidothiomorpholin-4-yl)carbonyl]-1-(3-{[2-(methoxymethyl)pyrrolidin-1-yl]carbonyl}pyridin-2-yl)-1H-1,2,4-triazol-3-yl}methyl)-4-[(2S)-3,3,3-trifluoro-2-hydroxypropyl]-2,4-dihydro-3H-1,2,4-triazol-3-one]"
83300 nM,280 nM,297.6,–,"COCC1CCCN1C(=O)c1ccncc1-n1nc(Cn2nc(-c3ccc(Cl)cc3)n(C[C@H](O)C(F)(F)F)c2=O)nc1C(=O)NCC(C)(C)N (mixture of isomers) [Example 536, N-(2-amino-2-methylpropyl)-3-({3-(4-chlorophenyl)-5-oxo-4-[(2S)-3,3,3-trifluoro-2-hydroxypropyl]-4,5-dihydro-1H-1,2,4-triazol-1-yl}methyl)-1-(4-{[2-(methoxymethyl)pyrrolidin-1-yl]carbonyl}pyridin-3-yl)-1H-1,2,4-triazol-5-carboxamide]"
